The source made the active and inactive calls.
Tests used:
[1] = target: T1, DNA dC->dU-editing enzyme APOBEC-3A (Homo sapiens, UniProt P31941); assay: APOBEC3A DNA deaminase inhibitors, dose response, biochemical (AID 504722); format: functional
[2] = target: T2, Rac GTPase-activating protein 1 (Homo sapiens, UniProt Q9H0H5); assay: MgcRacGAP GTPase-activating activity inhibitors, confirmation, biochemical, ADP Hunter fluorescence, primary and confirmatory (AID 624330); format: functional
T2 sequence (Q9H0H5 whole entry): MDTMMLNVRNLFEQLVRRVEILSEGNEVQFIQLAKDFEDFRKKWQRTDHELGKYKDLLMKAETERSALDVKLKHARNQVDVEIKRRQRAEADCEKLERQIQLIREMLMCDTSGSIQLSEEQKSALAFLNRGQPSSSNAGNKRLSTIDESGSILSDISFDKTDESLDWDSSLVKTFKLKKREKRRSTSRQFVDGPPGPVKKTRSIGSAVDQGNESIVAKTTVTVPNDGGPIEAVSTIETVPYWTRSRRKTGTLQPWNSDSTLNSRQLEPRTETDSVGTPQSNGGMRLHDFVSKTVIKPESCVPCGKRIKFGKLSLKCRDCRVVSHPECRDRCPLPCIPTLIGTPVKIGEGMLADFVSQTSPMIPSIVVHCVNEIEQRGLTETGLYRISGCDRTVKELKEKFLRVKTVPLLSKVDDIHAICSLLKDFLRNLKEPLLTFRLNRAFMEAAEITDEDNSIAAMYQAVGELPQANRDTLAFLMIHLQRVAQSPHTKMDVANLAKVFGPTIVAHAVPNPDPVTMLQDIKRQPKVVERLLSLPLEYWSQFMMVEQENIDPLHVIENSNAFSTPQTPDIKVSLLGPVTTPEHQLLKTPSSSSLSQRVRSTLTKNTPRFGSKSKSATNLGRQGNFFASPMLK

[3] = target: T3, DNA dC->dU-editing enzyme APOBEC-3G (Homo sapiens, UniProt Q9HC16); assay: Dose Response confirmation of small molecule APOBEC3G DNA Deaminase Inhibitors via a fluorescence-based single-stranded DNA deaminase assay. [Related pubchem assays (depositor defined):AID493012, AID493028]; format: functional
[4] = cytotoxicity toward NIH3T3 fibroblasts, dose response, counter-screen, cell-based, ATP luminescence, mouse fibroblasts (AID 2010); format: functional;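 also: cells exposed to compound for about 90 hours before reading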
[5] = inhibitors of intracellular T. cruzi replication, confirmation, NIH3T3 host cells, beta-gal luminescence (AID 2044); format: functional, cell-based;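 also: intracellular parasites grown in NIH/3T3 mouse fibroblasts as host cells; luminescent beta-galactosidase reporter signal from transgenic T. cruzi replicating inside host cells; inhibitors lower the luminescence signal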
[6] = test system: INS1; assay: beta cell apoptosis inhibitors, cytokine rescue, dose response, luminescence, retest (AID 449756); format: functional, cell-based; settings: Rattus norvegicus;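 also: cell death triggered by IL-1 beta plus TNF-alpha plus IFN-gamma mixture; protective hits raise ATP signal compared with cytokine alone wells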
[7] = target: Heat shock protein HSP 90-alpha (Homo sapiens, UniProt P07900); format: functional, organism-based
[8] = target: T4, Kappa-type opioid receptor (Homo sapiens, UniProt P41145); format: functional
[9] = test system: Streptococcus; assay: Group A Streptococcus viability loss, dose response, counter-screen for streptokinase expression inhibitor project, luminescence, BacTiterGlo (AID 1915); format: functional, organism-based;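 also: potency for reduction of bacterial viability or growth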
[10] = target: Beta-galactosidase (Escherichia coli, UniProt Q8VNN2); format: functional
[11] = target: T4, Kappa-type opioid receptor; format: functional; remark: listed apart in the source
[12] = test system: Streptococcus sp. 'group A'; assay: growth inhibition of control SK(-) GAS strain, dose response, counter-screen for streptokinase expression inhibitor project, luminescence, kanamycin, BacTiterGlo, confirmation (AID 1900); format: functional, organism-based
[13] = target: T5, Streptokinase A (Streptococcus pyogenes serotype M1, UniProt P10520); assay: S. pyogenes streptokinase expression inhibitors, potency, dose response, plasminogen activation absorbance, OD405 (AID 1914); format: functional, Streptococcus pyogenes M1 GAS;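 also: secreted streptokinase activity via plasminogen activation per viability signal from cell pellet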
T5 sequence (P10520 whole entry): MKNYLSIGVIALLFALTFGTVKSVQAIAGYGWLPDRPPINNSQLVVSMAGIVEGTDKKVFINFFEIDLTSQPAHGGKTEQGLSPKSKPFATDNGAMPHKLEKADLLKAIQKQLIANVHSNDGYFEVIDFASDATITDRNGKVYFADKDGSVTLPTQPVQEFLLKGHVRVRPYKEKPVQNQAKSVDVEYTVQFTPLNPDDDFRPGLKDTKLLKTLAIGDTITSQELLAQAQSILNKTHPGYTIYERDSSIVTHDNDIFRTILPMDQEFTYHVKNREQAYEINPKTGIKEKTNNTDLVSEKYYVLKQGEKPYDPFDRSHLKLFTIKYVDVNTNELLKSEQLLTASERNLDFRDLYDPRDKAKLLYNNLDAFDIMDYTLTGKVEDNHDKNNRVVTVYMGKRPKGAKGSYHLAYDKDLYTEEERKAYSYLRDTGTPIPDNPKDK

[14] = target: T1, DNA dC->dU-editing enzyme APOBEC-3A; assay: Dose Response confirmation of small molecule APOBEC3A DNA Deaminase Inhibitors via a fluorescence-based single-stranded DNA deaminase assay. [Related pubchem assays (depositor defined):AID493011, AID493024]; format: functional
[15] = target: T3, DNA dC->dU-editing enzyme APOBEC-3G; format: functional
[16] = Vero E6 cell cytotoxicity, dose response, cytotoxicity control for non-replicating M. tuberculosis project, secondary assay (AID 492998); format: functional, VeroE6; settings: Vero C1008
[17] = HepG2 cell cytotoxicity, dose response, cytotoxicity control for non-replicating M. tuberculosis project (AID 489018); format: functional; settings: Mycobacterium tuberculosis
[18] = cells; format: functional
[19] = THP-1 cell cytotoxicity, dose response, cytotoxicity control for non-replicating M. tuberculosis project (AID 489025); format: functional
[20] = target: T6, Zinc finger protein mex-5 (Caenorhabditis elegans, UniProt Q9XUB2); assay: MEX-5/TCR-2 RNA interaction inhibitors, dose response, biochemical, C. elegans, fluorescence polarization (AID 1960)
T6 sequence (Q9XUB2 whole entry): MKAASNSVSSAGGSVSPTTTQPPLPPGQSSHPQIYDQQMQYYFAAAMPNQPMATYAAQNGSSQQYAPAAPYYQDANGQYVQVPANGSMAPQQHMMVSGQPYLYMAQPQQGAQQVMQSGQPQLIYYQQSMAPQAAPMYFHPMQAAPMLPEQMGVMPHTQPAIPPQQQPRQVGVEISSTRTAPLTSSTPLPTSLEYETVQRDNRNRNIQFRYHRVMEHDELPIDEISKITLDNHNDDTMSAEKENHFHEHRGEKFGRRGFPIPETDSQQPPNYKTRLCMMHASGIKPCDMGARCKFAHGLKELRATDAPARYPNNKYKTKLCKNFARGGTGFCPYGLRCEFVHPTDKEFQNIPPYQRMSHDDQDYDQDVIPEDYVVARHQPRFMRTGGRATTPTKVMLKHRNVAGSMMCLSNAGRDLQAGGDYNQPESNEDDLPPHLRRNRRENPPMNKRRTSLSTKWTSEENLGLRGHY

[21] = target: Large T antigen (Simian virus 40, UniProt P03070); format: functional, Betapolyomavirus macacae;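 also: Confirmatory-stage PubChem screen for compounds that inhibit SV40 T antigen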
[22] = target: T7, RNA-binding protein pos-1 (Caenorhabditis elegans, UniProt G5EF15); assay: inhibitors of POS-1/mex-3 RNA binding, dose response, biochemical, fluorescence polarization (AID 1964);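 also: purified POS-1 fused to maltose binding protein made in E. coli; potency of compounds blocking POS-1 binding to fluorescent RNA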
T7 sequence (G5EF15 whole entry): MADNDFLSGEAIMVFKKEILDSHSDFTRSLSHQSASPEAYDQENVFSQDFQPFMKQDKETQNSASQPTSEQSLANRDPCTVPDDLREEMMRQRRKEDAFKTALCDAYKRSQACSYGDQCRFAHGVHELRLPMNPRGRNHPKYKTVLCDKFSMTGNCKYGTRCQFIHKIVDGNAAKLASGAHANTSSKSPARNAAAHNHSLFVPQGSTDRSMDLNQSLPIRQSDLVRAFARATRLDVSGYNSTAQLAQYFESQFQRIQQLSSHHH

[23] = target: Induced myeloid leukemia cell differentiation protein Mcl-1 (Homo sapiens, UniProt Q07820); format: functional
[24] = target: T8, Aminopeptidase N (Plasmodium falciparum FcB1/Columbia, UniProt O96935); assay: P. falciparum M1AAP inhibitors, biochemical, fluorogenic H-Leu-NHMec substrate, 1536-well (AID 1445); parameters: species or system Plasmodium falciparum 3D7, 3D7
T8 sequence (O96935 whole entry): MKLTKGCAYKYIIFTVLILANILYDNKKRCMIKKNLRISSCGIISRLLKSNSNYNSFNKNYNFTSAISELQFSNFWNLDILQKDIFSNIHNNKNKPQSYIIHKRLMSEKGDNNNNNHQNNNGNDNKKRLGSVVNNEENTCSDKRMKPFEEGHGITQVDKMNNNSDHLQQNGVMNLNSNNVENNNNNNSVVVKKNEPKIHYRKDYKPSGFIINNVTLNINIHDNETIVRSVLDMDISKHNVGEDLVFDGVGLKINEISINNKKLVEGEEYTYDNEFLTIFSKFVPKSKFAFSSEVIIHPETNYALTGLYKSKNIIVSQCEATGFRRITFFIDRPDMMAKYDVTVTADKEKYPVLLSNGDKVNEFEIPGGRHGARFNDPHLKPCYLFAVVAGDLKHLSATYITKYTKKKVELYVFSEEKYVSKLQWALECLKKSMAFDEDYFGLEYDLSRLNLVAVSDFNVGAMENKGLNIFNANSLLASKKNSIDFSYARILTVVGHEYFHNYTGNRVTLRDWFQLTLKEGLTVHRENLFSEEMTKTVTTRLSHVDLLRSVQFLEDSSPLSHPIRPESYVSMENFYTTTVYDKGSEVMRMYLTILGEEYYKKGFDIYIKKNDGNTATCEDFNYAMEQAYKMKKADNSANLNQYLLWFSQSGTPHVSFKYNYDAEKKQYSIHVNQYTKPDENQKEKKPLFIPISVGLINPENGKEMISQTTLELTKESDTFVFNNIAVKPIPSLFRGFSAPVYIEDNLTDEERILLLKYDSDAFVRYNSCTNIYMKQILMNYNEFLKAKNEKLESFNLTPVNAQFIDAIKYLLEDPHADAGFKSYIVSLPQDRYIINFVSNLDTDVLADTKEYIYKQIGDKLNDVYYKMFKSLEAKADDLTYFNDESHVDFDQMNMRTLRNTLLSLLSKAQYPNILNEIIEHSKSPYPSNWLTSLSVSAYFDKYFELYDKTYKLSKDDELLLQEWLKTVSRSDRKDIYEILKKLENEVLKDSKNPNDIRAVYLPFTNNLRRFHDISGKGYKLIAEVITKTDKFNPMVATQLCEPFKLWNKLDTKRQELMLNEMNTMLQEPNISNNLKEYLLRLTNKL

[25] = target: T9, Microphthalmia-associated transcription factor (Homo sapiens, UniProt O75030); assay: TRPM1 promoter luciferase signal decrease, dose response, MITF inhibitor project, cell-based, SK-MEL-5, cherry-picked, set 3 (AID 493073); format: functional
T9 sequence (O75030 whole entry): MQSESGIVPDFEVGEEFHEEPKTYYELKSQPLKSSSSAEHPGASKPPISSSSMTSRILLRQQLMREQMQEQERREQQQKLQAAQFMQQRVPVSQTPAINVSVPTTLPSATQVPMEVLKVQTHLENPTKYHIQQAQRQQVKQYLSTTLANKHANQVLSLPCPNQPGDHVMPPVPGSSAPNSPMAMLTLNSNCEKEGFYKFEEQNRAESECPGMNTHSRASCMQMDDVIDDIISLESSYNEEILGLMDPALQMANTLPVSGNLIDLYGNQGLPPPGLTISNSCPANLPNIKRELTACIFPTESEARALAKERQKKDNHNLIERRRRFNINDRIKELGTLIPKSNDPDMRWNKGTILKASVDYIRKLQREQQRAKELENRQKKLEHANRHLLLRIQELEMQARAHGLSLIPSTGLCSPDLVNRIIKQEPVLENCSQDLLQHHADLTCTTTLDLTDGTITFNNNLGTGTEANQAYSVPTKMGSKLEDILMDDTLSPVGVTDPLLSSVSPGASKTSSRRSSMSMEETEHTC

[26] = target: Neurotensin receptor type 1 (Homo sapiens, UniProt P30989); format: functional;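 also: Image-based confirmatory dose-response assay measuring agonist activity at NTR1; NTR1-expressing U2OS osteosarcoma cells imaged for beta-arrestin GFP spot formation; agonist potency where compounds increase beta-arrestin recruitment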
Neurotensin receptor type 1, sequence (P30989 whole entry): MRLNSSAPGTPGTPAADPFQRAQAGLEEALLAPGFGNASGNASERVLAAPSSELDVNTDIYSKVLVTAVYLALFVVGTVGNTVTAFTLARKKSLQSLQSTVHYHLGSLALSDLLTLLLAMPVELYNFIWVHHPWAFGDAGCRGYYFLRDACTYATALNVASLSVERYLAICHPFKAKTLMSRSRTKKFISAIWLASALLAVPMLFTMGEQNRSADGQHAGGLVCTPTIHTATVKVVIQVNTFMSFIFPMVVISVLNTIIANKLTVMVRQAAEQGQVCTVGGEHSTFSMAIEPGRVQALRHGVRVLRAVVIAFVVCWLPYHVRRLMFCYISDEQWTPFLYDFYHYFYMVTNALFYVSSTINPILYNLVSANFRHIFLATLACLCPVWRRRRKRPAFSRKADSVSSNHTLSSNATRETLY

T3 sequence (Q9HC16 whole entry): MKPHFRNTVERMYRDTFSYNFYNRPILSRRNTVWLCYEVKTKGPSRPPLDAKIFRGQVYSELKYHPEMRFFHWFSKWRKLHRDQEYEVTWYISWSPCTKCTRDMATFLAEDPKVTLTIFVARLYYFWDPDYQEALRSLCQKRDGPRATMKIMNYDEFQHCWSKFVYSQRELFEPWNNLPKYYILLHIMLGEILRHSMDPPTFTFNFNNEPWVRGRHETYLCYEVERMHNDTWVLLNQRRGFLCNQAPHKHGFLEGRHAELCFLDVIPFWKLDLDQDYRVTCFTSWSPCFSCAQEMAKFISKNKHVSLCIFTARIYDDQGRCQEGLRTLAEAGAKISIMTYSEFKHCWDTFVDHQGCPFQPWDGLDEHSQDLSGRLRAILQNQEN
T1 sequence (P31941 whole entry): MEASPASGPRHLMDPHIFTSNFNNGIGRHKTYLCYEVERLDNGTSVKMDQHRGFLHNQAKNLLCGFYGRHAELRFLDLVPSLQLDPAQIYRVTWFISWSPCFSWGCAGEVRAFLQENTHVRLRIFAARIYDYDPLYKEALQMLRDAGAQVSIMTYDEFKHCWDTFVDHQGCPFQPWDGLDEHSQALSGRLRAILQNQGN
T4 sequence (P41145 whole entry): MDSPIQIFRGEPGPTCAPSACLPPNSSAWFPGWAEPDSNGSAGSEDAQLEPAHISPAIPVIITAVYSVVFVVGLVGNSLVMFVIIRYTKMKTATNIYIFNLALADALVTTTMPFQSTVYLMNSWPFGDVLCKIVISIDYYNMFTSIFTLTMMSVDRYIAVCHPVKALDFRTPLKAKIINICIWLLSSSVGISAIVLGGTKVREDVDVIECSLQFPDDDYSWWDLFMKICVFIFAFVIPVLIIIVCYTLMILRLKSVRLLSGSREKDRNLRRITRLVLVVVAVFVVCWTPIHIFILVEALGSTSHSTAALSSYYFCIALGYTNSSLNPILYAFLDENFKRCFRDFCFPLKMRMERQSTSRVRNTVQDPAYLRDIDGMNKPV
Beta-galactosidase, sequence (Q8VNN2 whole entry): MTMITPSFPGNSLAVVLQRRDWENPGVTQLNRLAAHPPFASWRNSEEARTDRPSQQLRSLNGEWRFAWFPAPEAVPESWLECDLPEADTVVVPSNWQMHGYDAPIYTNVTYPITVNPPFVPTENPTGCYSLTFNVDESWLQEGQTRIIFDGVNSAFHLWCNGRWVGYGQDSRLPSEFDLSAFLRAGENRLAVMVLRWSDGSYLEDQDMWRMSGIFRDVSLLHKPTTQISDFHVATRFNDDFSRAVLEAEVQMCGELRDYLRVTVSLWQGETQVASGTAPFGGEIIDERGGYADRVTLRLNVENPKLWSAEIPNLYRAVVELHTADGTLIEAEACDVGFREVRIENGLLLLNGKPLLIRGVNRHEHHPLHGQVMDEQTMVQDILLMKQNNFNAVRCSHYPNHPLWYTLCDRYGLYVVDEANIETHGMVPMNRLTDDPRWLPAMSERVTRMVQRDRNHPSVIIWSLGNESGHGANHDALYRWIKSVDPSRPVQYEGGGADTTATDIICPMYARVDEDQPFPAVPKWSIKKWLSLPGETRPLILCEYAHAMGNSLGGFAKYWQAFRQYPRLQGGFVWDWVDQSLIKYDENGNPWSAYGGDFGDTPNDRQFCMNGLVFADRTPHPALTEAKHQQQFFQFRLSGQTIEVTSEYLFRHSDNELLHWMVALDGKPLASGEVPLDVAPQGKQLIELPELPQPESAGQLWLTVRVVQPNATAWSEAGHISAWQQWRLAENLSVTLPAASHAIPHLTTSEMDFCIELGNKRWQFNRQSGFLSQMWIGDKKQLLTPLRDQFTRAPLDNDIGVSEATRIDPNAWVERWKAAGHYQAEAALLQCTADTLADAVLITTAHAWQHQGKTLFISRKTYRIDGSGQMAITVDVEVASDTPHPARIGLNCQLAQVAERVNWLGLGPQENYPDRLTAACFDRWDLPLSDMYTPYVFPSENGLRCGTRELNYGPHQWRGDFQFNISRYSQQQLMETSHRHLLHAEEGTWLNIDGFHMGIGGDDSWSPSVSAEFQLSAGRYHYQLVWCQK
Induced myeloid leukemia cell differentiation protein Mcl-1, sequence (Q07820 whole entry): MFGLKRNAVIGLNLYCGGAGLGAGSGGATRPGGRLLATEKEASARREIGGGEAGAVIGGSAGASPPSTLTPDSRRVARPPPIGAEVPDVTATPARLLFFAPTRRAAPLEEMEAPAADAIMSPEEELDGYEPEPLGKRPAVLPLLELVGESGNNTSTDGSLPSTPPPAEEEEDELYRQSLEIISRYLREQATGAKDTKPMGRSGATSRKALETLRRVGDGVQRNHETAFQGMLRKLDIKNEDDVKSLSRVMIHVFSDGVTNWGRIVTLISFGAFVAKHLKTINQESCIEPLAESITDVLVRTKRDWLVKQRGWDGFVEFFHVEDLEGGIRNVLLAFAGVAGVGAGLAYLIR
Large T antigen, sequence (P03070 whole entry, the tested form may be a part): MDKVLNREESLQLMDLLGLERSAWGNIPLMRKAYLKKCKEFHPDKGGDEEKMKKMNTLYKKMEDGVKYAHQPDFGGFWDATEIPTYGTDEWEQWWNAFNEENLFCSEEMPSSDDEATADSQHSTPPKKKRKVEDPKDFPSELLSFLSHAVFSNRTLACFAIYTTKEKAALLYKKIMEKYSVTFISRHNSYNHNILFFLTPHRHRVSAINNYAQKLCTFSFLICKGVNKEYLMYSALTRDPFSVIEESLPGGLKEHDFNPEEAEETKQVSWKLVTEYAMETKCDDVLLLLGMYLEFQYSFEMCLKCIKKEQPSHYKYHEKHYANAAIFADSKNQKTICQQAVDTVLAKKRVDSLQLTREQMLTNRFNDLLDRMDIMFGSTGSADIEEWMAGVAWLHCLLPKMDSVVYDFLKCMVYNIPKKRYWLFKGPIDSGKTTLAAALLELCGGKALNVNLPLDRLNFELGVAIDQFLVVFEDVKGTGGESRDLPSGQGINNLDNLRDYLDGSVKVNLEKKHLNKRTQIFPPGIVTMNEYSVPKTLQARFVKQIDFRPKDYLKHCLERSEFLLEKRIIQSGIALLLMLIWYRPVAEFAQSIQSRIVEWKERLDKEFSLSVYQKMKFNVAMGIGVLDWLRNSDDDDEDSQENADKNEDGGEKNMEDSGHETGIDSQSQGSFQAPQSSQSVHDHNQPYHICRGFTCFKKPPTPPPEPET

Cc1cccc(-c2nnc(S)n2/N=C/c2ccco2)c1
IC50 [1]: > 100 µM (inactive) | IC50 [2]: 89.6 µM (active) | IC50 [3]: 2.1 µM (active)

Sc1nnc(-c2ccco2)n1/N=C/c1c(Cl)cccc1Cl
IC50 [1]: > 100 µM (inactive) | IC50 [3]: 5.03 µM (active)

Cc1[nH]c(N=Nc2ccccc2)nc1N=Nc1ccccc1
EC50 [4]: 4.45 µM (active) | EC50 [5]: 1.12 µM (active) | AC50 [6]: 3.72 µM (active) | AC50 [7]: 3.76 µM (active) | IC50 [8]: 8.4 µM (active) | EC50 [9]: > 50 µM (not active) | EC50 [10]: 17.4 µM (active) | IC50 [11]: > 32 µM | EC50 [12]: 3.49 µM (active) | EC50 [13]: 23.4 µM (active)

C=CCNC(=O)c1ccccc1NC(=O)C1CCN(S(=O)(=O)c2ccc(SC)cc2)CC1
IC50 [14]: 5.28 µM (active) | IC50 [15]: 6.15 µM (active)

O=C(Cc1cccs1)N/N=C\c1ccc([N+](=O)[O-])s1
EC50 [4]: 17.5 µM (active) | EC50 [5]: 0.36 µM (active) | AC50 [6]: 6.28 µM (active) | CC50 [16]: 11.5 µM (active) | CC50 [17]: 17.7 µM (active) | IC50 [18]: 9.65 µM (active) | CC50 [19]: 15.3 µM (active)

Nc1cc(C(=O)O)c(N)c2c1C(=O)c1ccccc1C2=O
EC50 [20]: 2.39 µM (active) | IC50 [21]: 21.9 µM (active) | EC50 [22]: 4.27 µM (active) | IC50 [23]: 3.71 µM (active) | IC50 [24]: 58.9 µM (active)

CCOC(=O)/C=c1\s/c(=C\c2ccc3cc(OC)ccc3c2)c(=O)n1CC(=O)NCC1CCCO1 (stereo not drawn)
EC50 [20]: > 300 µM (not active) | AC50 [25]: 5.73 µM (active) | EC50 [22]: 90.4 µM (active) | EC50 [26]: 7.15 µM (active)
